This assay deals with T1, TAAR1 (Mus musculus, UniProt Q923Y8).
T1 construct: expressed in transfected cells; host or cells: HEK293 cells (ATCC # CRL-1573), stably transfected with pIRESneo2 expression plasmid; membrane preparation
The experiment in a line: Radioligand binding to TAAR1, membranes of stably transfected HEK293 cells, [3H]-rac-2-(1,2,3,4-tetrahydro-1-naphthyl)-2-imidazoline. Particulars: for Ki: mouse TAAR1, 4° C., 30 minutes incubation, radioligand at 60 nM. Here is the method: The Expand High Fidelity PCR System (Roche Diagnostics) was used with 1.5 mM Mg^2+ and purified PCR products were cloned into pCR2.1-TOPO cloning vector (Invitrogen) following the instructions of the manufacturer. PCR products were subcloned into the pIRESneo2 vector (BD Clontech, Palo Alto, Calif.), and expression vectors were sequence verified before introduction in cell lines.
For the generation of stably transfected cell lines, HEK293 cells were transfected with the pIRESneo2 expression plasmids containing the TAAR coding sequences (described above) with Lipofectamine 2000 (Invitrogen) according to the instructions of the manufacturer, and 24 hours post transfection, the culture medium was supplemented with 1 mg/ml G418 (Sigma, Buchs, Switzerland). After a culture period of about 10 days, clones were isolated, expanded and tested for responsiveness to trace amines (all compounds purchased from Sigma) with the cAMP Biotrak Enzyme immunoassay (EIA) System (Amersham) following the non-acetylation EIA procedure provided by the manufacturer.
Cells at confluence were rinsed with ice-cold phosphate buffered saline without Ca^2+ and Mg^2+ containing 10 mM EDTA and pelleted by centrifugation at 1000 rpm for 5 minutes at 4° C. The pellet was then washed twice with ice-cold phosphate buffered saline and the cell pellet was frozen immediately by immersion in liquid nitrogen and stored until use at −80° C. The cell pellet was then suspended in 20 ml HEPES-NaOH (20 mM), pH 7.4 containing 10 mM EDTA, and homogenized with a Polytron (PT 3000, Kinematica) at 10,000 rpm for 10 seconds. The homogenate was centrifuged at 48,000×g for 30 minutes at 4° C. and the pellet resuspended in 20 ml HEPES-NaOH (20 mM), pH 7.4 containing 0.1 mM EDTA (buffer A), and homogenized with a Polytron at 10,000 rpm for 10 seconds. The homogenate was then centrifuged at 48,000×g for 30 minutes at 4° C. and the pellet resuspended in 20 ml buffer A, and homogenized with a Polytron at 10,000 rpm for 10 seconds. Protein concentration was determined by the method of Pierce (Rockford, Ill.). The homogenate was then centrifuged at 48,000×g for 10 minutes at 4° C., resuspended in HEPES-NaOH (20 mM), pH 7.0 including MgCl2 (10 mM) and CaCl2 ([…]) (buffer B) at 200 μg protein per ml and homogenized with a Polytron at 10,000 rpm for 10 seconds.
Binding assay was performed at 4° C. in a final volume of 1 ml, and with an incubation time of 30 minutes. […] Non-specific binding was defined as the amount of [^3H]-rac-2-(1,2,3,4-tetrahydro-1-naphthyl)-2-imidazoline bound in the presence of the appropriate unlabelled ligand (10 μM). Competing ligands were tested in a wide range of concentrations (10 pM-30 μM). […] Each experiment was performed in duplicate. All incubations were terminated by rapid filtration through UniFilter-96 plates (Packard Instrument Company) and glass filter GF/C) pre-soaked for at least 2 hours in polyethylenimine 0.3%, and using a Filtermate 96 Cell Harvester (Packard Instrument Company). The tubes and filters were then washed 3 times with 1 ml aliquots of cold buffer B. Filters were not dried and soaked in Ultima gold (45 μl/well, Packard Instrument Company) and bound radioactivity was counted by a TopCount Microplate Scintillation Counter (Packard Instrument Company).

As usually defined, the Ki is a measure of affinity in units of concentration, obtained from inhibition or displacement. High values mean lower affinity, low ones higher affinity. Usually Kd stands for the constant that tells how readily two partners part at equilibrium.

T1 sequence (Q923Y8 whole entry): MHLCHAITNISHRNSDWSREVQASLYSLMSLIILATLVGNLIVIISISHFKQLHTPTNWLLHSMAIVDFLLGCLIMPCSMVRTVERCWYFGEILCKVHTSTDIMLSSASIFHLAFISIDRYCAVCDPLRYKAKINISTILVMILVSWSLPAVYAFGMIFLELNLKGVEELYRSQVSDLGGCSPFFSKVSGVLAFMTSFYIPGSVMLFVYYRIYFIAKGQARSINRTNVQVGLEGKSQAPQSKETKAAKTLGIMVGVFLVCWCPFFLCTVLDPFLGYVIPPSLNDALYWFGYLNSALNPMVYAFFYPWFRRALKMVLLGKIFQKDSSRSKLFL

In turn, `CC1CCc2ccccc2N1Cc1cnc[nH]1` (single isomer, unassigned; (-)) [Example 47, (−)-1-(1H-Imidazol-4-ylmethyl)-2-methyl-1,2,3,4-tetrahydro-quinoline] gave a Ki of 0.0872 µM.
Still for that read-out and setting: in the case of `CC1COc2ccccc2N1Cc1cnc[nH]1` (single isomer, unassigned; (-)) [Example 49, (−)-4-(1H-Imidazol-4-ylmethyl)-3-methyl-3,4-dihydro-2H-benzo[1,4]oxazine] it was 0.0573 µM.
Take `Cc1cccc2c1CCN2Cc1cnc[nH]1` [Example 41, 1-(1H-Imidazol-4-ylmethyl)-4-methyl-2,3-dihydro-1H-indole]: the Ki was found to be 0.0104 µM.
Still for that read-out and setting: with `c1ccc(COc2ccc3c(c2)N(Cc2cnc[nH]2)CCC3)cc1` [Example 57, 7-Benzyloxy-1-(1H-imidazol-4-ylmethyl)-1,2,3,4-tetrahydro-quinoline] the figure was 0.0702 µM.
On to `Cc1ccc2c(c1)N(Cc1cnc[nH]1)CC2` [Example 34, 1-(1H-Imidazol-4-ylmethyl)-6-methyl-2,3-dihydro-1H-indole], for which affinity was put at a Ki of 0.0133 µM.
As to `CC1Cc2cc(F)ccc2N1Cc1cnc[nH]1` (racemic) [Example 39, (R,S)-5-Fluoro-1-(1H-imidazol-4-ylmethyl)-2-methyl-2,3-dihydro-1H-indole], the inhibition constant (Ki) was determined as 0.0493 µM.
Still for that read-out and setting: with `c1ccc2c(c1)CCCCN2Cc1cnc[nH]1` [Example 44, 1-(3H-Imidazol-4-ylmethyl)-2,3,4,5-tetrahydro-1H-benzo[b]azepine] the figure was 0.0151 µM; with `c1ccc2c(c1)OCCN2Cc1cnc[nH]1` [Example 18, 4-(1H-Imidazol-4-ylmethyl)-3,4-dihydro-2H-benzo[1,4]oxazine], 0.0578 µM.
Same read-out and setting: in the case of `Clc1ccc2c(c1)CCN2Cc1cnc[nH]1` [Example 14, 5-Chloro-1-(1H-imidazol-4-ylmethyl)-2,3-dihydro-1H-indole] it was 0.0102 µM; in that of `c1ccc(COc2cccc3c2CCCN3Cc2cnc[nH]2)cc1` [Example 55, 5-Benzyloxy-1-(1H-imidazol-4-ylmethyl)-1,2,3,4-tetrahydro-quinoline], 0.0046 µM.
The compound `CC1CCc2ccccc2N1Cc1cnc[nH]1` (racemic) [Example 3, (R,S)-1-(1H-Imidazol-4-ylmethyl)-2-methyl-1,2,3,4-tetrahydro-quinoline] returned an inhibition constant (Ki) of 0.0258 µM.
Still for that read-out and setting: in the case of `c1ccc2c(c1)CCCN2Cc1cnc[nH]1` [Example 7, 1-(3H-Imidazol-4-ylmethyl)-1,2,3,4-tetrahydro-quinoline] it was 0.0264 µM; in that of `Brc1ccc2c(c1)CCN2Cc1cnc[nH]1` [Example 4, 5-Bromo-1-(1H-imidazol-4-ylmethyl)-2,3-dihydro-1H-indole], 0.0091 µM.
As for `c1ccc(Oc2cccc3c2CCCN3Cc2c[nH]cn2)cc1` [Example 61, 1-(1H-Imidazol-4-ylmethyl)-5-phenoxy-1,2,3,4-tetrahydro-quinoline], the affinity, expressed as Ki, was 0.0027 µM.
Compound `Brc1ccc2c(c1)CCCN2Cc1cnc[nH]1` [Example 33, 6-Bromo-1-(H-imidazol-4-ylmethyl)-1,2,3,4-tetrahydro-quinoline] came in with a Ki of 0.003 µM.
For the compound `Fc1ccc2c(c1)N(Cc1cnc[nH]1)CC2` [Example 37, 6-Fluoro-1-(1H-imidazol-4-ylmethyl)-2,3-dihydro-1H-indole], affinity was put at a Ki of 0.0106 µM.
On the same count and under the same terms, with `COc1ccc2c(c1)CCCCN2Cc1cnc[nH]1` [Example 43, 1-(3H-Imidazol-4-ylmethyl)-7-methoxy-2,3,4,5-tetrahydro-1H-benzo[b]azepine] the figure was 0.0538 µM; with `CCc1cccc2c1N(Cc1cnc[nH]1)CC2` [Example 23, 7-Ethyl-1-(1H-imidazol-4-ylmethyl)-2,3-dihydro-1H-indole], 0.0042 µM; with `CC1CN(Cc2cnc[nH]2)c2ccccc21` (racemic) [Example 35, (R,S)-1-(1H-Imidazol-4-ylmethyl)-3-methyl-2,3-dihydro-1H-indole], 0.0323 µM.
Compound `Cc1ccc2c(c1)CCN2Cc1cnc[nH]1` [Example 29, 1-(1H-Imidazol-4-ylmethyl)-5-methyl-2,3-dihydro-1H-indole] yielded a Ki of 0.0115 µM.
The compound `CC1Cc2ccccc2N1Cc1cnc[nH]1` (racemic) [Example 1, (R,S)-1-(1H-Imidazol-4-ylmethyl)-2-methyl-2,3-dihydro-1H-indole] showed a Ki of 0.0688 µM.
`CC1Cc2cc(Cl)ccc2N1Cc1cnc[nH]1` (racemic) [Example 16, (R,S)-5-Chloro-1-(1H-imidazol-4-ylmethyl)-2-methyl-2,3-dihydro-1H-indole] had an inhibition constant Ki of 0.0345 µM.
With `Clc1cccc2c1N(Cc1cnc[nH]1)CC2` [Example 32, 7-Chloro-1-(H-imidazol-4-ylmethyl)-2,3-dihydro-1H-indole], affinity was put at a Ki of 0.0403 µM.
Turning to `Fc1ccc2c(c1)CCN2Cc1cnc[nH]1` [Example 36, 5-Fluoro-1-(1H-imidazol-4-ylmethyl)-2,3-dihydro-1H-indole], the inhibitory constant (Ki) came to 0.0277 µM.
For `COc1ccc2c(c1)CCN2Cc1cnc[nH]1` [Example 26, 1-(1H-Imidazol-4-ylmethyl)-5-methoxy-2,3-dihydro-1H-indole], the affinity, expressed as Ki, was 0.0834 µM.
`CC1CCc2cc(F)ccc2N1Cc1cnc[nH]1` (racemic) [Example 6, (R,S)-6-Fluoro-1-(1H-imidazol-4-ylmethyl)-2-methyl-1,2,3,4-tetrahydro-quinoline] displayed an inhibitory constant (Ki) of 0.0598 µM.
Compound `Fc1cc2c(cc1F)N(Cc1cnc[nH]1)CC2` [Example 38, 5,6-Difluoro-1-(1H-imidazol-4-ylmethyl)-2,3-dihydro-1H-indole] had a Ki of 0.0144 µM. Compared with the last compound, the Ki is about 4.2-fold lower.
As for `c1ccc2c(c1)CCCC2C1=NCCN1` (racemic) [[^3H]-rac-2-(1,2,3,4-tetrahydro-1-naphthyl)-2-imidazoline, reference compound], the Kd (radioligand of the TAAR1 binding assay, species not stated, read-out: calculated Kd value of the radioligand) was 0.06 µM.
`Cc1cccc2c1N(Cc1cnc[nH]1)CC2` [Example 40, 1-(1H-Imidazol-4-ylmethyl)-7-methyl-2,3-dihydro-1H-indole] came in with a Ki of 0.0405 µM.
The same measure, in the same setting: with `Clc1cccc2c1CCN2Cc1cnc[nH]1` [Example 25, 4-Chloro-1-(1H-imidazol-4-ylmethyl)-2,3-dihydro-1H-indole] the figure was 0.0016 µM.
For the compound `CC1COc2ccccc2N1Cc1cnc[nH]1` (racemic) [Example 45, (R,S)-4-(1H-Imidazol-4-ylmethyl)-3-methyl-3,4-dihydro-2H-benzo[1,4]oxazine], the inhibition constant Ki came to 0.017 µM.
In the case of `COc1cccc2c1CCN2Cc1c[nH]cn1` [Example 31, 1-(1H-Imidazol-4-ylmethyl)-4-methoxy-2,3-dihydro-1H-indole], the affinity corresponds to a Ki of 0.0243 µM.
`COc1ccc2c(c1)N(Cc1cnc[nH]1)CC2` [Example 27, 1-(1H-Imidazol-4-ylmethyl)-6-methoxy-2,3-dihydro-1H-indole] yielded an inhibition constant Ki of 0.0389 µM. This Ki is about 1.6-fold higher than that of the compound before.
Turning to `COc1cccc2c1N(Cc1cnc[nH]1)CC2` [Example 28, 1-(1H-Imidazol-4-ylmethyl)-7-methoxy-2,3-dihydro-1H-indole], the affinity corresponds to a Ki of 0.0409 µM.

The values are drawn from US7858652B2, “Substituted 4-imidazoles” (Hoffmann-La Roche Inc., priority 2006, dated 2010).
